Assay results: patent US8946164B2, “Bioactive peptide” (Kyoto University, priority 2010, dated 2015)

Assays:
[1] = tested on: mice; assay: Elevated plus-maze test of anxiolytic effect; assay type: in vivo, mouse; conditions: for Minimum Effective Dose (anxiolytic effect): IP
Protocol: In the present invention, the anxiolytic effects can be evaluated by the elevated plus-maze test, which has been developed as a method for evaluating anxiety-related behaviors to screen anxiolytic drugs and has been widely used (FIG. 1). Specifically, the test is performed as follows: a candidate substance for an anxiolytic drug is orally or intraperitoneally administered to a mouse, the mouse is placed in an elevated plus-maze 30 minutes after the administration, and the potency of the anxiolytic effect is evaluated based on the number of entries into the open arms and the change in the time spent on the open arms.
The elevated plus-maze includes two open arms (25×5 cm) and two closed arms (25×5×15 cm), which were joined to a central platform 50 cm high above the floor (see FIG. 1). Because the closed arms were surrounded by barriers, a mouse could safely walk in the closed arms in spite of the elevated position. On the other hand, because the open arms were not surrounded by barriers, a mouse walking along the open arms would feel anxious that it might fall from the elevated position. Therefore, the more time the mouse spent in the open arms, or the greater the number of entries into the open arms, the less anxious the mouse would feel. Thus, the anxiolytic activity is determined based on these indices.
A mouse was placed on a portion of the central platform facing one of the open arms, and the test was started. During the 5-minute test time, the cumulative time spent in the open arms (abbr.: time in open arms), the number of visits to the open arms (abbr.: visits to open arms), and the total number of visits to the either arms (abbr.: total visits) were recorded. The percentage of the time spent in the open arms and the percentage of the number of visits to the open arms were calculated as indices of anxiety.
The data obtained from the elevated plus-maze test were represented as the mean values±SEM. The data were analyzed by one-way ANOVA, followed by the Fisher test for multiple comparisons.
Each of VYLPR (SEQ ID NO:1) (Example 1), YLPR (SEQ ID NO:2) (Example 2), and LPR (SEQ ID NO:3) (Example 3) dissolved in physiological saline was administered intraperitoneally (IP) or orally (PO) to mice (n=3 to 14) in the amount shown in each figure before the mice were placed on the central portion of the elevated plus-maze. The percentage of the time spent in the open arms, the percentage of the number of visits to the open arms, and the total number of visits to the both arms (total visits) were compared between groups administered each peptide and the control group (0 mg/kg). The results are shown in FIGS. 2 to 5, FIGS. 7 and 8, and Table 1.
Trypsin-digested ovalbumin was used as an active ingredient and was administered intraperitoneally and orally to test the anxiolytic effects using the open arms in the same manner as in Examples 1 to 3.
An aqueous solution of ovalbumin (20 mg/ml) was heated (10-min boiling), and bovine trypsin (E:S=1:100) was added to carry out a reaction at 37° C. for 5 hours. As a result, VYLPR (SEQ ID NO:1) was produced at a high efficiency of 44 mol %. When the aqueous solution of ovalbumin was not pre-heated, VYLPR (SEQ ID NO:1) was below the detection limit and was hardly produced even with the trypsin treatment. TPCK-treated Trypsin from bovine pancreas (Sigma) was used as the bovine trypsin. […]

[2] = tested on: mice; assay: Elevated plus-maze test with peptide given in combination with an inhibitor or receptor antagonist; assay type: in vivo, mouse
Protocol: An anxiolytic peptide of the invention was administered in combination with the inhibitor or one of the antagonists for various receptors as follows, and tests were conducted in the same manner as in Example 1 in order to identify the effect of each antagonist on the anxiolytic activity of the peptide of the present invention, i.e., to identify the receptors on which the peptide of the invention acts.
COX inhibitor: Indomethacin, 10 mg/kg
DP1-R antagonist: BWA868C, 60 μg/kg

Row | Substance | Minimum Effective Dose (anxiolytic effect) [1] [mg/kg] | anxiolytic effect ([1]; intraperitoneal administration) | anxiolytic effect ([1]; oral administration) | anxiolytic effect in the presence of prostaglandin DP1 receptor antagonist ([2]; BWA868C 60 μg/kg, FIG. 10A) | anxiolytic effect in the presence of adenosine A2A receptor antagonist ([2]; SCH58261 0.1 mg/kg, FIG. 10B)
1 | Leu-Pro-Arg [LPR] | 0.3 | – | – | – | –
2 | Tyr-Leu-Pro-Arg (YLPR; Designed peptide) | 0.3 | – | – | – | –
3 | Undigested ovalbumin: Undigested ovalbumin (with and without heat treatment) used as the control for the trypsin digest [reference compound] | – | did not show anxiolytic effects | did not show anxiolytic effects | – | –
4 | Val-Tyr-Leu-Pro-Arg (VYLPR; Designed peptide) | 0.3 | – | – | inhibited | inhibited
